Patent publication US5051431A, “Pyridone nitriles useful in treating cardiovascular disease” (Glaxo Inc., priority 1990, dated 1991)
pEC50, pIC50: −log10 of the molar value.

Legend:
rat aorta [1] = assay: Rat Aorta Protocol: relaxation of phenylephrine-contracted rat aorta rings (endothelium removed); assay type: cell-based
Experimental: Such vasorelaxation appears to be related to inhibition of the phosphodiesterase (PDE) isozyme related to the cardiac sarcoplasmic reticulum. Thus, relaxation of rat aorta can be used as a screen to eliminate compounds which are not PDE inhibitors prior to testing for actual inotropic activity.
Rings of rat aorta (endothelium removed) were prepared for the measurement of isometric force in isolated tissue organ chambers essentially as previously described by T. J. Rimele et al in the Journal of Pharmacol. Exo. Ther. 245:102-111 (1988). The experimental portion of the protocol began with the addition of methylene blue (1×10^-5 M) and propranolol (1×10^-6 M) to each organ chamber to inhibit basal cGMP accumulation due to soluble guanylate cyclase and beta-adrenoceptors.Phenylephrine (1×10^-7 M) was then added and the rings were allowed to obtain a stable contractile response after which time, the test compound was added in a cumulative fashion. The relaxation induced by each concentration of the test compound was expressed as a percentage of the maximal relaxation produced by nitroprusside (1×10^-4 M). The results were graphically represented as a plot of the percentage relaxation vs. the negative log of the molar concentration of the test compound. […]

[2] = test system: barbiturate-anesthetized dogs; assay: Anesthetized Dog: inotropic effect (increase in baseline left ventricular dP/dt); assay type: in vivo
Experimental: (§1) Inotropic effects were evaluated in barbiturate-anesthetized dogs by differentiating left intraventricular pressure. This procedure was carried out essentially as described by M. K. Grizzel et al in the FASEB Journal, Vol. 3, page 1039, abstract 4728 (1989). Purpose breed mongrel dogs (14-20 kg) of either sex were anesthetized with a mixture of sodium pentobarbital (15 mg/kg) and sodium barbital (300 mg/kg) i.v., intubated with a cuffed endotracheal tube and ventilated with a respirator (Harvard Apparatus, model 613, South Natick, Mass.) with room air (22 rpm, 10-12 ml/kg/stroke). […] Cardiac output was determined via thermodilution with a Spectramed computer (Starcom., Oxnard, Calif.) and a 5F Swan Ganz catheter which was inserted into the right jugular vein and positioned in the pulmonary artery. […] A lead II electrocardiogram was measured using subcutaneous electrodes. […] Rectal temperature was monitored and maintained at 37°-38° C. with a heating pad (Baxter Health Care model K20, McGaw Park, Ill.). All variables were recorded using a Gould 3800S physiograph.
(§2) Isoproterenol (0.1-0.5 μg/kg) was injected i.v. into the cephalic vein at 10 min intervals except for when the test drug infusion was begun. […] Inhibition of the isoproterenol responses on contractility (dP/dt), heart rate and diastolic blood pressure were determined at each dose of test compound. […]

[3] = test system: barbiturate-anesthetized dogs; assay: Anesthetized Dog: beta-blocking effect (inhibition of the dP/dt response to isoproterenol); assay type: in vivo; conditions: Canis lupus familiaris, iv, infusion, isoproterenol 0.1-0.5 μg/kg i.v.
Experimental: as §1, §2

guinea pig left atria = assay: Guinea Pig Left Atria Test: direct effect on force of atrial contraction; assay type: cell-based; conditions: Cavia porcellus, propranolol and phentolamine (1.0 micromolar each) present
Experimental: This test is carried out as generally described by T. P. Kenakin et al in Journal of Cardiovascular Pharmacology 101, 658-666 (1987) and in the Journal of Pharmacology and Experimental Therapeutics, Vol. 213, 406-413 (1980).
Male Hartley guinea-pigs (300-400 grams) were sacrificed by cervical dislocation or carbon dioxide asphyxiation. The hearts were immediately removed and placed in oxygenated Krebs-Henseleit buffer (composition (millimolar): Na^+ 143, K^+ 5.9, Ca^++ 1.25, Mg^++ 1.2, Cl^- 128, HCO3^- 25, SO4^-- 1.2, H2 PO4^- 1.0, and D-glucose 10). Left atria were dissected away from the remainder of the heart and mounted on holders against platinum punctate electrodes. The mounted atria were placed in tissue baths maintained at 31° C. and oxygenated with 95% 02 -5% CO2 under 1.0 gram resting tension. […] Contractions were detected with a force displacement transducer and recorded on a physiograph. […]
Direct effects of the test compounds on the force of atrial contraction were observed and recorded after addition of the compounds to the tissue bath. […] Responses to the test compounds and forskolin were expressed as a percentage of the maximal response to forskolin. EC50 values for the test compounds were calculated as the concentration of the compound necessary to produce an inotropic response half that of the maximal response produced by the test compound.

Beta-1 adrenoceptor = target: T1, Beta-1 adrenoceptor (Rattus norvegicus, UniProt P18090); assay: Beta Adrenoceptor Binding Assays: displacement of [I-125]-Pindolol from rat brain cortical membranes; conditions: pH 7.6, 22° C., two hr, read-out: pIC50 (negative log of the IC50) (converted)
T1 construct: rat brain cortices were used as the source of membrane vesicles; from tissue; host or cells: rat brain cortex membranes
T1 sequence (P18090 whole entry): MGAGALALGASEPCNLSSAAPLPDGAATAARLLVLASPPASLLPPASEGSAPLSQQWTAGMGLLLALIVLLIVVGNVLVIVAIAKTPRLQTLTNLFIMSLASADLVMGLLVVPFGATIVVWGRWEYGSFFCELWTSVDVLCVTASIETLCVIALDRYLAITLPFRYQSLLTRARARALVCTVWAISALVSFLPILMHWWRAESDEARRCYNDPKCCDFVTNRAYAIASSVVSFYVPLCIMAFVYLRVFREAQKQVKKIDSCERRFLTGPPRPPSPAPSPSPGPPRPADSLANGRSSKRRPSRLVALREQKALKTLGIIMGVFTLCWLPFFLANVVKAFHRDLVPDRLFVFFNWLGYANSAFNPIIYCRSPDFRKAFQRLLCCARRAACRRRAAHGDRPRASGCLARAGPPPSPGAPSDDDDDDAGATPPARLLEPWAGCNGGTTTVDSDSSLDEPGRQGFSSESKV
Experimental: Because of its receptor density rat brain cortices were used as the source of membrane vesicles to be used in the receptor binding assays. Freshly excised cortexes were homogenized in 20 volumes (w/v) 50 mM TRIS HCl Buffer (pH 7.5), with a glass/Teflon homogenizer following the procedure previously described by T. J. Rimele in J. Pharmacol Exp. Ther. 239: 1-8, 1986. Beta-1 adrenoceptor binding activity was determined following methods described by M. H. Randall, et al, J. Med. Chem. 20: 1090-1094, 1977, and J. Homberger, et al in Mol. Pharmacol. 20: 453-469, 1981. The incubation mixture consisted of; 26 μl of 50 mM TRIS/HCl, 10 mM MgCl2 pH 7.6 buffer, 25 μl of test drug or 10-6 pindolol to define nonspecific binding, 100 μl of [I-125]-Pindolol (2200Ci/mM) at a final concentration of 10-9, and 100 μl of brain cortical membranes. The mixture was incubated at RT (22 ° C.) for two hr in the dark. The reaction was stopped by filtration of the mixture through buffer soaked glass fiber membranes (GF/B) using an cell harvesting device (Skatron Inc.). The radioactivity in each filter containing the trapped membrane particles was counted with a gamma counter. […] All specific binding values obtained in the presence of test compounds were expressed as the percentage of specific binding displaced by the individual agents. […]

rat aorta [4] = conditions: literature, R. F. Kauffman et al., J. Pharmacol. Exp. Ther. 242:864-872 (1987); cited from earlier work

| SMILES | Emax at 100 µM (rat aorta [1]; Rattus norvegicus, at the highest dose tested (100 micromolar), read-out: maximal response (relaxation as percentage of the maximal relaxation produced by nitroprusside)) [%] | pIC50 (rat aorta [1]; rat aorta rings, endothelium removed, phenylephrine 1×10^-7 M, methylene blue and propranolol present, read-out: IC50 (concentration of test compound which produced a relaxation equivalent to 50% of the maximal relaxation induced by nitroprusside)) | ED50 ([2]; Canis lupus familiaris, iv, infusion, compared to baseline prior to drug infusion, read-out: inotropic ED50 (50% increase in dP/dt)) [µmol/kg] | inotropic effects at higher doses, sensitivity to atenolol ([2]; higher doses, atenolol) | ED50 [3] [µmol/kg] | Emax at 100 µM (guinea pig left atria; at 100 micromolar, read-out: maximal response (percentage of the maximal response to forskolin)) [%] | pEC50 (guinea pig left atria; guinea pig left atria, 31° C., read-out: ED50 (concentration producing an inotropic response half that of the maximal response produced by the test compound)) | IC50 (Beta-1 adrenoceptor) [µM] | relaxation of rat aorta (rat aorta [4]) |
| --- | --- | --- | --- | --- | --- | --- | --- | --- | --- |
| Cc1[nH]c(=O)c(C#N)cc1-c1ccc(OCCCC(=O)NCCNCC(O)COc2ccccc2)cc1 (stereo not shown) [Example 2, 5-{4-[N-[2-(3-Phenoxy-2-hydroxypropylamino)ethyl]carbamoylpropyloxy]phenyl}-6-methyl-2-oxo-1,2-dihydro-3-pyridinecarbonitrile] | 97 | 4.64 | 0.04 | not blocked by atenolol | 0.055 | 36 | 4.89 | 0.02 |  |
| CSc1ccc(C(=O)c2[nH]c(=O)[nH]c2C)cc1 [enoximone] |  |  |  |  |  |  |  |  | marked relaxation |
| Cc1[nH]c(=O)c(C#N)cc1-c1ccncc1 [milrinone] |  |  |  |  |  |  |  |  | marked relaxation |
